Converted amounts (≈) assume the structure as drawn.
How the values were obtained:
[1] = test system: antibodies from Rabbit No. 2 produced in response to immunization with AZT-3-V:BSA; assay: AZT microtiter plate enzyme immunoassay (EIA); assay type: binding; details: tracer AZT-3-V:HRPO; for Net Absorbence (B): zero standard 0.367
Method: (§1) The immunogen (1 mg in 1 ml) was emulsified with an equal volume of Freund's Complete Adjuvant and injected intradermally into each of two female albino rabbits. The process was repeated in two weeks. Two weeks later, monthly subcutaneous booster injections were begun with 0.5 mg in 0.5 ml of the immunogen and 0.5 ml of Freund's Incomplete Adjuvant per animal. The rabbits were bled biweekly by a marginal ear vein technique beginning six weeks after the primary immunization. The blood collected was refrigerated, allowing clots to form, and the supernatant (antiserum) retained. The antiserum from each rabbit was collected and stored, either at -20° C. without preservative, or at 4° C. after addition of sodium azide to a final concentration of 0.1%. The same schedule was followed for each immunogen. Rabbits immunized produced antibodies to AZT.
To each well of a 96 well microtiter plate was added 100 ul of diluted rabbit antibodies (Example 45) to AZT-3-V:BSA prepared via active ester (Example 4) previously fractionated with ammonium sulfate. After incubation overnight, the plate was washed and 300 ul of diluted normal rabbit serum was added to each well to block any unbound sites on the plastic surface of the microtiter plate. The plate was again washed and the excess moisture removed. […] The plate was incubated for 60 minutes at room temperature. The plate was then washed and 300 ul of diluted o-phenylenediaminehydrogen peroxide substrate solution was added to each well. The color was allowed to develop for 90 minutes at room temperature in the dark. Absorbances were then measured spectrophotometrically for each well.

[2] = test system: antibodies from Rabbit No. 1 produced in response to immunization with AZT-3-V:BSA; assay: Fluorescence polarization immunoassay (FPIA) for AZT, standard curve; assay type: binding; details: tracer AZT-3-B:FAM Isomer I, zero standard 166
Method: as §1
(§2) Fluorescence Polarization Immunoassay for AZT
The following procedure illustrates the use of various materials of the invention in a preferred FPIA method.
(§3) An equal volume of precipitation reagent was added per microcentrifuge tube. The tubes were centrifuged at greater than 9,000×g for 1 minute.
(§4) (2) A 17.5 ul sample of each serum extract was brought to approximately pH 7-8 by the addition of buffer.
(§5) (4) After an appropriate incubation time, the polarization of each reaction mixture was determined using a polarization spectrofluorimeter.

AZT antibodies [3] = assay: Immunological activity / tracer performance in FPIA for AZT (qualitative); assay type: binding; details: qualitative
Method: as §3, §4, §5

[4] = at high dosage levels; cited from earlier work
[5] = major metabolite of AZT; cited from earlier work
antibody to AZT = assay: Nephelometric inhibition immunoassay (NIA) for AZT; assay type: binding; details: qualitative
Method: Typically this conjugate is prepared from a high molecular weight carrier such as horse apoferritin or serum proteins.

Solubility in water = assay type: physicochemical; details: UV, assuming E^M275 = 8600, read-out: concentration of saturated aqueous solution
Method: A mixture of 25 mg AZT-3-AA (Example 19), 15 mg NOS and 15 mg DCC in 1 ml of THF was stirred two hours at room temperature, then a solution of 25 mg TME in 500 ul of THF/MeOH (9+1) was added and the mixture was stirred overnight at room temperature. The suspension was filtered through a PTFE membrane to remove dicyclohexylurea and chromatographed by TLC on silica gel-F 250 um using the solvent system CHCl3 /MeOH/HOAc (90+10+1). Three major UV-absorbing bands were located: TME, Rf =0.13, ninhydrin positive, Pauly positive, migrates with TME reference; NOS, Rf =0.33, ninhydrin negative, Pauly negative, migrates with NOS reference; and product, Rf =0.40, ninhydrin negative, Pauly positive. The band corresponding to the product was scraped, eluted with MeOH and rechromatographed on RPF 250 um using the solvent system MeOH/H2 O/HOAc (33+66+2) to remove a trace of NOS. In this second chromatography system, Rf =0.42 (product) and Rf =0.81 (NOS). The product was eluted with MeOH/THF (1+1). A saturated aqueous solution was prepared and filtered through a PTFE membrane and stored at -20° C. The saturated aqueous solution was characterized by a UV wavelength scan and concentration of the solute was calculated to be 47 ug/ml, assuming E^M275 =8600.

[6] = test system: antisera to AZT, Rabbit 1 (immunized with AZT-3-V:BSA); assay: FPIA comparison of tracers, antiserum of Rabbit 1 (Table 1); assay type: binding; details: for Polarization Units (P × 1000): 1 pmole of tracer, antiserum at the given titer; for ED50 AZT: concentration of AZT giving 50% reduction in polarization of this tracer relative to 0 tube; for Titer [Ab]: dilution of antiserum required to obtain the given polarization units with 1 pmole of tracer
Method: as §1, §2, §3, §4, §5
(§6) As further illustration of the invention polyclonal antibodies were raised in two rabbits by immunization with the conjugate of Example 4 (AZT-3-V:BSA) as is more fully described in Example 45 and stored at 4° C. with 0.1% sodium azide. A number of tracers were then compared as to their performance in FPIA using the antisera raised from two rabbits.
(§7) ^(1) TITER was defined as the dilution of antiserum (i.e., [Ab])
(§8) required to obtain the given polarization units (P × 1000) with 1
(§9) required to give a 50% reduction in polarization relative to a control (0
(§10) tube) containing no unlabeled AZT.

[7] = test system: antisera to AZT, Rabbit 2 (immunized with AZT-3-V:BSA); assay: FPIA comparison of tracers, antiserum of Rabbit 2 (Table 1); assay type: binding; details: for Polarization Units (P × 1000): 1 pmole of tracer, antiserum at the given titer; for ED50 AZT: concentration of AZT giving 50% reduction in polarization of this tracer relative to 0 tube; for Titer [Ab]: dilution of antiserum required to obtain the given polarization units with 1 pmole of tracer
Method: as §1, §2, §3, §4, §5, §6, §7, §8, §9, §10

AZT antibodies [8] = assay: Fluorescence quenching technique for assaying AZT; assay type: binding; details: qualitative
Excerpt: Fluorescence quenching and fluorescence enhancement immunoassays are other homogeneous fluorescent assays based on the observation that some antibodies, upon binding to a fluorescent molecule, cause either an enhancement or decrease in fluorescence.

SMILES: Cc1cn([C@H]2C[C@H](N=[N+]=[N-])[C@@H](CO)O2)c(=O)[nH]c1=O (single isomer, unassigned) [AZT, 3'-azido-3'-deoxythymidine]
- % B/Bo ([1]; AZT 0.1 ng/ml): 88%
- Net Absorbence (B) ([1]; AZT 0.1 ng/ml): 0.323
- % B/Bo ([1]; AZT 0.4 ng/ml): 74%
- Net Absorbence (B) ([1]; AZT 0.4 ng/ml): 0.273
- % B/Bo ([1]; AZT 1.6 ng/ml): 56%
- Net Absorbence (B) ([1]; AZT 1.6 ng/ml): 0.205
- % B/Bo ([1]; AZT 6.3 ng/ml): 41%
- Net Absorbence (B) ([1]; AZT 6.3 ng/ml): 0.149
- % B/Bo ([1]; AZT 25.3 ng/ml): 23%
- Net Absorbence (B) ([1]; AZT 25.3 ng/ml): 0.085
- % B/Bo ([1]; AZT 101.1 ng/ml): 12%
- Net Absorbence (B) ([1]; AZT 101.1 ng/ml): 0.044
- Polarization Units (P × 1000) ([2]; AZT 0.2 uM): 155 P × 1000
- Polarization Units (P × 1000) ([2]; AZT 0.6 uM): 141 P × 1000
- Polarization Units (P × 1000) ([2]; AZT 1.7 uM): 118 P × 1000
- Polarization Units (P × 1000) ([2]; AZT 5.0 uM): 87 P × 1000
- Polarization Units (P × 1000) ([2]; AZT 14.7 uM): 61 P × 1000
- immunological activity in FPIA for AZT (AZT antibodies [3]): immunologically active
- side effects [4]: serious side effects at high dosage levels

SMILES: Cc1cn([C@H]2C[C@H](N=[N+]=[N-])[C@@H](CO[C@@H]3O[C@H](C(=O)O)[C@@H](O)[C@H](O)[C@H]3O)O2)c(=O)[nH]c1=O [AZT-5'-glucuronide]
- pharmacological activity [5]: believed to be pharmacologically inactive

SMILES: COC(=O)C(Cc1ccc(O)cc1)NC(=O)Cn1c(=O)c(C)cn([C@H]2C[C@H](N=[N+]=[N-])[C@@H](CO)O2)c1=O (stereo partly shown) [Example 24, 2-[2-(3'-azido-3'-deoxythymid-3-yl)-acetamido]-3-(4-hydroxyphenyl)-propionic acid methyl ester]
- immunological activity in NIA for AZT (antibody to AZT): immunologically active
- solubility (Solubility in water): 47 µg/mL (≈ 93.5 µM)
- immunological activity in FPIA for AZT (AZT antibodies [3]): immunologically active

SMILES: COc1nc(NCCCn2c(=O)c(C)cn([C@H]3C[C@H](N=[N+]=[N-])[C@@H](CO)O3)c2=O)nc(Nc2ccc3c(c2)C(=O)OC32c3ccc(O)cc3Oc3cc(O)ccc32)n1 [Example 32, 3-[3-[4-(fluoresceinyl-5)-6-methoxy-s-triazin-2-yl]-aminopropyl]-3'-azido-3'-deoxythymidine]
- Polarization Units (P × 1000) [6]: 179 P × 1000
- ED50 AZT [6]: 3.1 µg/mL (≈ 3.98 µM)
- Titer [Ab] [6]: 550
- Polarization Units (P × 1000) [7]: 170 P × 1000
- ED50 AZT [7]: ~ 8.0 ug/ml
- Titer [Ab] [7]: 183
- performance as tracer for determination of AZT by FPIA (AZT antibodies [3]): satisfactory tracer

SMILES: Cc1cn([C@H]2C[C@H](N=[N+]=[N-])[C@@H](CO)O2)c(=O)n(CCCNc2nc(Cl)nc(Nc3ccc4c(c3)C(=O)OC43c4ccc(O)cc4Oc4cc(O)ccc43)n2)c1=O [Example 34, 3-[3-[4-(Fluoresceinyl-5)-6-chloro-s-triazin-2-yl]-aminopropyl]-3'-azido-3'-deoxythymidine]
- Polarization Units (P × 1000) [6]: 171 P × 1000
- ED50 AZT [6]: 2.0 µg/mL (≈ 2.55 µM)
- Titer [Ab] [6]: 500
- Polarization Units (P × 1000) [7]: 168 P × 1000
- ED50 AZT [7]: 4.0 µg/mL (≈ 5.11 µM)
- Titer [Ab] [7]: 140
- immunological activity in FPIA for AZT (AZT antibodies [3]): immunologically active

SMILES: Cc1cn([C@H]2C[C@H](N=[N+]=[N-])[C@@H](COC(=O)CCC(=O)Nc3ccc4c(c3)C(=O)OC43c4ccc(O)cc4Oc4cc(O)ccc43)O2)c(=O)[nH]c1=O [Example 41, 5-[(3'-azido-3'-deoxythymid-5'-yl)-succinamido]-fluorescein]
- immunoactivity by fluorescence quenching technique (AZT antibodies [8]): Immunoactivity of the product was demonstrated

SMILES: COC(=O)C(Cc1ccc(O)cc1)NC(=O)CCC(=O)OC[C@H]1O[C@@H](n2cc(C)c(=O)[nH]c2=O)C[C@@H]1N=[N+]=[N-] (stereo partly shown) [Example 43, 2-[(3'-azido-3'-deoxythymid-5'-yl)-succinamido]-3-(4-hydroxyphenyl)-propionic acid methyl ester]
- immunological activity in NIA for AZT (antibody to AZT): immunologically active
- immunological activity in FPIA for AZT (AZT antibodies [3]): immunologically active
